Assay results published in patent US7618657B2, “Active ingredients preparation and single compound purification from traditional Chinese herbal medicine Fructus Trichosanthis and uses thereof” (priority 2003, dated 2009).

Columns and labels:
[1] = tested on: K562 cells; assay: FACS analysis of fetal hemoglobin expression in treated K562 cells; assay type: cell-based, human; settings: HU 25 mg/ml, 6 days, FIG. 7
Protocol: K562 cells were cultured with hydroxyurea (HU, 25 mg/ml) and the lead compound from Trichosanthes (12.5 ng/ml) for 6 days. Then the cells were conjugated with PE labeled mouse anti human fetal hemoglobin monoclonal antibodies (Becton Dickinson) followed by FACS analysis. In brief, 1×10^6 cells were collected in a 15 ml falcon tube and centrifuged in 150 rpm for 5 min. The cell pallet was washed with PBS. Then cells were fixed by gently mixing with 1 ml PBS with 4% formaldehyde (37-40%, Merck) for 1 hr at room temperature. The fixed cells were washed once with PBS and then were resuspended in 100 μl 0.01% Triton X-100 (Merck) in PBS/0.1% BSA (Sigma). 20 μl monoclonal antibody was added in, followed by mixing thoroughly and incubating for 30 min in darkness at room temperature, with frequent gentle shaking. Finally the cells were washed with 1× PBS with 0.1% sodium azide once and kept in 4° C. until analysis.

[2] = tested on: K562 cells; assay: TMB staining of hemoglobin positive K562 cells; assay type: cell-based, human; settings: six days culture, hydroxyurea (positive control) 25.0 μg/ml
Protocol: K562 cells (ATCC) were cultured in RPMI 1640 (Gibco) supplemented with 10% fetal calf serum (FCS, Gibco) and 1% PSN (Gibco). The cultures were maintained under a humidified atmosphere with 95% air/5% CO2 at 37° C.
The hemoglobin positive K562 cells can be identified by 3,3′,5,5′-tetramethylbenzidine (TMB, Sigma) staining. In brief, 10 μl/cell suspension was pipetted out and mixed with 10 μl TMB working solution. Five minutes later, cells were scored as positive (blue) or negative (pale yellow) at 200× microscope.
Before the assay, K562 cells were scored first by TMB staining to ensure there was no selfdifferentiation (TMB positive cell percentage less than 1.0%). 100 μl/well complete RPMI 1640 was added into a 96-well plate, and 180 μl was added in the first well. 20 μl Trichosanthes extraction components was added into the first well immediately. Then 100 μl of the mixture was transferred to the next well. By such one half dilution method, serial dilutions of Trichosanthes extraction components were got.
100 μl K562 cell suspension with the density of 4×10^4 cells/ml was add into each well of the 96-well plate. […] Then the hemoglobin positive cells were recorded by TMB staining.
Dose-response effect of the lead compound from Trichosanthes was studied on K562 cells which were cultured and assayed as described in example 3. […] Then the hemoglobin positive cells were recorded by TMB staining.

NC(=O)NO [Hydroxyurea, hydroxyurea]
expression of fetal hemoglobin (FACS, PE labeled anti human fetal hemoglobin antibody) [1]: induced
TMB Positive Cell Percentage [2]: 66.7 ± 4.4%
